Measured values as given in article PMC6832503, “Synthesis of Novel Nicotinic Ligands with Multimodal Action: Targeting Acetylcholine α4β2, Dopamine and Serotonin Transporters” (Molecules, 2019).
Structures can show the parent of a compound that is named as a salt.

What was measured:
h-DAT = target: T1, h-DAT (Homo sapiens, UniProt Q01959); assay: [3H]-WIN 35,428 competitive binding on h-DAT membranes (CHO-K1)
T1 construct: purchased Perkin-Elmer RBHDATM400UA; host or cells: CHO-K1 membranes
Method: (§1) To evaluate the affinity (Ki) of our compounds, competitive binding assays in α4β2 nAChR using [^3H]-cytisine as radioligand ([^3H]-Cyt) was measured. Binding experiments were carried out on whole rat brain synaptosomes. To evaluate the affinity on the monoamine transporters SERT and DAT, binding affinity (Ki) was determined using [^3H]-WIN 35,428 ([^3H]-WIN) for h-DAT and [^3H]-paroxetine ([^3H]-parox) for h-SERT as specific radioligands for the corresponding monoamine transporters respectively. Competitive binding studies were carried out on homogenized membranes prepared from the human clonal cell line HEK293 for h-SERT (Perkin Elmer) and CHO-K1 for h-DAT (Perkin Elmer). […].
The cellular background CHO-K1 with 400 μL of h-DAT (Code RBHDATM400UA, Perkin-Elmer, Santiago, Chile) was diluted in 12 Eppendorf tubes, with a storage buffer solution of Tris-HCl 50 mM (pH 7.4), EDTA 0.5 mM, MgCl2 10 mM and 10% sucrose, obtaining a final volume of 260–340 μL stored at −80 °C [46]. Each Eppendorf tube was incubated in 50 mM Tris-HCl buffer solution (pH 7.4), 100 mM NaCl, the drugs under study were using increasing concentrations, with 1 nM of [^3H]-WIN 35,428 (specific activity 82.6 Ci/mmol, Code NET1033025UC, Perkin-Elmer, Santiago, Chile) with a final volume of 250 μL. Non-specific binding was determined using 10 mM methylphenidate.
After 120 min at 4 °C, the incubation was stopped by rapid filtration on a Whatman GF/C filter preabsorbed in 0.5% polyethylenimine (PEI), washed with cold working buffer solution, 3 x 3mL, filtered, and scintillation liquid was added. The radioactivity was measured by liquid scintillation spectrometry (MicroBeta 2450 microplate counter, PerkinElmer, Santiago, Chile). The data were plotted by non-linear regression variable inhibitor-response dose (Prism 5.01, GraphPad, San Diego, CA, USA) to estimate the IC50 and Ki values for the tested compounds using the Cheng-Prusoff equation.

α4β2 nAChR = target: T2, α4β2 nAChR (Rattus norvegicus, UniProt P09483+P12390); assay: [3H]-cytisine competitive binding on whole rat brain synaptosomes
T2 construct: the rat complete brain P1 fraction (occupying 2 mg of wet tissue for each assay); from tissue; host or cells: whole rat brain, synaptosome pellet (fraction P1)
Method: as §1
Preparation of the synaptosome fraction: the rats were sacrificed by decapitation, and their brain removed without dissecting. Brain tissue was homogenized in 40 volumes using a buffer of 0.32 M sucrose at pH 7.4, containing 1 mM EDTA, 0.1 mM PMSF, and 0.01% of cold and freshly prepared NaN3, through a glass homogenizer and teflon stem. The homogenate was distributed in Eppendorf tubes and centrifuged at 20,000 g for 30 min at 4 °C to produce a synaptosome pellet (fraction P1) which is used for the binding assay. This fraction P1 was subsequently stored at −80 °C.
Binding assay of [^3H]-cytisine in α4β2 nAChR cells: the rat complete brain P1 fraction (occupying 2 mg of wet tissue for each assay) was incubated in 2500 μL of 20 mM HEPES buffer solution at pH 7.4 containing 118 mm NaCl, 4.8 mm KCl, 2.5 mm CaCl2, 200 mm Tris, 0.1 mm PMSF and 0.01% NaN3 with or without the different drugs under study at different concentrations, in the presence of 1 nM of [^3H]-cytisine (specific activity 35.8 Ci/mmol, Code NET1054025UC, Perkin-Elmer, Santiago, Chile) in a final volume of 250 μL. Non-specific binding was determined using 2.5 mM of cytisine. Incubation was performed for 30 min at room temperature and then for 60 min at 4 °C. Incubation was stopped by rapid filtration in Whatman GF/C filter preabsorbed in 0.5% polyethylenimine, which were washed with cold and fresh working buffer 7 times, then dried, and adding scintillation liquid, left for the whole night in Eppendorf tubes in order to measure later the radioactivity by liquid scintillation spectrometry (MicroBeta 2450 microplate counter, PerkinElmer, Santiago, Chile). The data were plotted by non-linear regression variable inhibitor-response dose (Prism 5.01, GraphPad, San Diego, CA, USA) to obtain the IC50 and Ki values of the tested compounds using the Cheng-Prusoff equation.

h-SERT = target: T3, h-SERT (Homo sapiens, UniProt P31645); assay: [3H]-paroxetine radioligand binding on h-SERT membranes (HEK293); settings: for % radioligand binding at 25 µM / % of Binding [3H]-Paroxetine h-SERT: 25 μM compound, 2 nM [3H]-paroxetine, HEK293 h-SERT membranes; for affinity for h-SERT (displacement of [3H]-paroxetine from the central binding site): result in words
T3 construct: purchased Perkin-Elmer RBHSTM400UA; host or cells: HEK293 membranes
Method: as §1
The cellular background HEK293 containing 400 μL of h-SERT (Code RBHSTM400UA, Perkin-Elmer, Santiago, Chile) was diluted in 12 Eppendorf tubes, containing a storage buffer solution of Tris-HCl 50 mM (pH 7.4), EDTA 0.5 mM, MgCl2 10 mM and 10% sucrose, obtaining a final volume between 260 and 340 μL, which was finally stored at −80 °C [46].
Each Eppendorf tube was incubated with 50 mM Tris HCl buffer (pH 7.4), 120 mM NaCl, 5 mM KCl and the drugs under study using increasing concentrations, in presence of 2 nM of [^3H]-paroxetine (specific activity 23.1 Ci/mmol, Code NET86925UC, Perkin-Elmer, Santiago, Chile) with a final volume of 250 μL [46]. Non-specific binding was determined using […] fluoxetine. After 30 min at 27 °C, the incubation was stopped by rapid filtration on a Whatman GF/C filter preabsorbed in 0.5% polyethylenimine (PEI), washed with cold working buffer solution, 3 × 3mL, filtered, and scintillation liquid was added. The radioactivity was measured by liquid scintillation spectrometry (MicroBeta 2450 microplate counter, PerkinElmer, Santiago, Chile). The data were represented in a bar graph using 25 μM concentration for both, the compound under study and fluoxetine as the non-specific ligand. Each bar represents the mean ± S.E.M obtained in the experiments carried out in triplicates.

SMILES	melting point [°C]	Ki (µM) h-DAT (h-DAT)	Ki (α4β2 nAChR) [µM]	Ki (µM) α4β2 nAChR (α4β2 nAChR)	% radioligand binding at 25 µM (h-SERT; […]) [%]	also measured
CN1CCC[C@H]1COC(=O)Cc1ccc(Cl)cc1Cl (as salt: hydrochloride)	179.1 to 180.5					
CN1CCC[C@H]1COC(=O)Cc1ccc(Cl)c(Cl)c1 (as salt: hydrochloride)	183.5 to 184.8					
CN1CCC[C@H]1COC(=O)c1cccc(Cl)c1 (as salt: hydrochloride) [Compound 3, (S)-(1-Methyl-2-pyrrolidinyl)methyl 3-chlorobenzoate]	120.5 to 121.9					
CN1CCC[C@H]1COC(=O)c1cccc(Br)c1 (as salt: hydrochloride) [Compound 4, (S)-(1-Methyl-2-pyrrolidinyl)methyl 3-bromobenzoate]	99 to 101.4					
Cc1ccccc1C(=O)OC[C@@H]1CCCN1C (as salt: hydrochloride) [Compound 5, (S)-(1-Methyl-2-pyrrolidinyl)methyl 2-methylbenzoate]	130.5 to 131.6					
CN1CCC[C@H]1COC(=O)c1ccc2ccccc2c1 (as salt: hydrochloride) [Compound 18, (S)-(1-Methyl-2-pyrrolidinyl)methyl 2-naphthoate]	125.5 to 127.1					
CN1CCCC1CCOC(=O)c1ccccc1 (racemic) (as salt: hydrochloride) [Compound 7, (±)-2-(1-Methyl-2-pyrrolidinyl)ethyl benzoate]	88.6 to 89.1					
CN1CCCC1CCOC(=O)c1ccccc1 (racemic) [Compound 7, (±)-2-(1-Methyl-2-pyrrolidinyl)ethyl benzoate]		no affinity and N.E	1.79 ± 0.378			% radioligand binding at 25 µM (h-SERT; values above 100 = increased radioligand binding): 100 ± 0.5%; affinity for h-SERT (displacement of [3H]-paroxetine from the central binding site) (h-SERT): no affinity
CN1CCCC1CCOC(=O)c1cccc(F)c1 (racemic) [Compound 8, (±)-2-(1-Methyl-2-pyrrolidinyl)ethyl 3-fluorobenzoate]		N.E		N.E	140 ± 2	% of Binding [3H]-Paroxetine h-SERT (h-SERT; […]): increase in the binding
CN1CCCC1CCOC(=O)c1cccc(Cl)c1 (racemic) [Compound 9, (±)-2-(1-Methyl-2-pyrrolidinyl)ethyl 3-chlorobenzoate]		N.E	3.46 ± 0.36		108 ± 1.2	
Cc1ccccc1C(=O)OCCC1CCCN1C (racemic) [Compound 11, (±)-2-(1-Methyl-2-pyrrolidinyl)ethyl 2-methylbenzoate]		did not display affinity		did not display affinity		affinity for h-SERT (displacement of [3H]-paroxetine from the central binding site) (h-SERT): did not display affinity
Cc1ccc(C(=O)OCCC2CCCN2C)cc1 (racemic) [Compound 12, (±)-2-(1-Methyl-2-pyrrolidinyl)ethyl 4-methylbenzoate]		did not display affinity		did not display affinity		affinity for h-SERT (displacement of [3H]-paroxetine from the central binding site) (h-SERT): did not display affinity
CN1CCCC1CCOC(=O)Cc1ccccc1 (racemic) [Compound 16, (±)-2-(-1-Methyl-2-pyrrolidinyl)ethyl 2-phenylacetate]				N.E	92 ± 0.3	Ki (h-DAT): 22.7 ± 7.1 µM
CN1CCCC1CCOC(=O)Cc1ccc(Cl)c(Cl)c1 (racemic) [Compound 17, (±)-2-(-1-Methyl-2-pyrrolidinyl)ethyl 2-(3,4-dichlorophenyl)acetate]				N.E	78 ± 0.6	Ki (h-DAT): 3.32 ± 0.923 µM
CN1CCCC1CCOC(=O)c1ccc2ccccc2c1 (racemic) [Compound 19, (±)-2-(1-Methyl-2-pyrrolidinyl)ethyl 2-naphthoate]				N.E	126 ± 1.9	Ki (h-DAT): 44.2 ± 8.12 µM; % of Binding [3H]-Paroxetine h-SERT (h-SERT; […]): increase in the binding
CN1CCCC1CCOC(=O)C(c1ccccc1)c1ccccc1 (racemic) [Compound 21, (±)-2-(-1-Methyl-2-pyrrolidinyl)ethyl 2,2-diphenylacetate]			0.113 ± 0.037		86.5 ± 1.5	Ki (h-DAT): 0.075 ± 0.009 µM
CN1CCC[C@H]1COC(=O)c1ccccc1 [Compound 1, (S)-(1-Methyl-2-pyrrolidinyl)methyl Benzoate]		N.E	0.023 ± 0.006		86 ± 0.6	
CN1CCC[C@H]1COC(=O)c1cccc(F)c1 [Compound 2, (S)-(1-Methyl-2-pyrrolidinyl)methyl 3-fluorobenzoate]		N.E	0.094 ± 0.002		123 ± 1.2	% of Binding [3H]-Paroxetine h-SERT (h-SERT; […]): increase in the binding
CN1CCC[C@H]1COC(=O)c1cccc(Cl)c1 [Compound 3, (S)-(1-Methyl-2-pyrrolidinyl)methyl 3-chlorobenzoate]		lacks affinity and N.E	0.009 ± 0.001		87.5 ± 1.5	affinity for h-SERT (displacement of [3H]-paroxetine from the central binding site) (h-SERT): lacks affinity
CN1CCC[C@H]1COC(=O)c1cccc(Br)c1 [Compound 4, (S)-(1-Methyl-2-pyrrolidinyl)methyl 3-bromobenzoate]		N.E	0.132 ± 0.038		137 ± 1.2	% of Binding [3H]-Paroxetine h-SERT (h-SERT; […]): increase in the binding
Cc1ccccc1C(=O)OC[C@@H]1CCCN1C [Compound 5, (S)-(1-Methyl-2-pyrrolidinyl)methyl 2-methylbenzoate]		did not display affinity		did not display affinity		affinity for h-SERT (displacement of [3H]-paroxetine from the central binding site) (h-SERT): did not display affinity
Cc1ccc(C(=O)OC[C@@H]2CCCN2C)cc1 [Compound 6, (S)-(1-Methyl-2-pyrrolidinyl)methyl 4-methylbenzoate]		did not display affinity		did not display affinity		affinity for h-SERT (displacement of [3H]-paroxetine from the central binding site) (h-SERT): did not display affinity
CN1CCC[C@H]1COC(=O)c1ccc2ccccc2c1 [Compound 18, (S)-(1-Methyl-2-pyrrolidinyl)methyl 2-naphthoate]			0.12 ± 0.037		117 ± 2.3	Ki (h-DAT): 99.3 ± 1.41 µM; % of Binding [3H]-Paroxetine h-SERT (h-SERT; […]): increase in the binding
